In patent US11773094B2, “Farnesoid X receptor agonists and uses thereof” (Metacrine, Inc., priority 2018, dated 2023) one finds EC50 data, which are given here for 15 molecules.

The experiment has as its target T1, hFXR (Homo sapiens, UniProt Q96RI1).
T1 construct: expressed in transfected cells; host or cells: CV-1 cells
T1 sequence (Q96RI1 1-486): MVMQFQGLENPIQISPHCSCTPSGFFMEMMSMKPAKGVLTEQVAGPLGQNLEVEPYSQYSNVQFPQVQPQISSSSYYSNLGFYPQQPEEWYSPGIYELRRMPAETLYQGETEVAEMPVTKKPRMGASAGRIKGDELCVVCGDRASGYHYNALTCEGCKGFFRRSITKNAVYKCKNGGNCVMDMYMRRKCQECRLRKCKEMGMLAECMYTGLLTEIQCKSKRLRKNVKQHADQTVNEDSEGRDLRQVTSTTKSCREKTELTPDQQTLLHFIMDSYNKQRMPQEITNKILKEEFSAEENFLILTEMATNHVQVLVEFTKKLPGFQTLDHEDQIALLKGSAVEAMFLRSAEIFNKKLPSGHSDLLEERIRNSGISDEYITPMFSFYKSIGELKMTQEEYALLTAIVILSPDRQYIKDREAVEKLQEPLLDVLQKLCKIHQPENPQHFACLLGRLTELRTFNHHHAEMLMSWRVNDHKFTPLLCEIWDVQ
T1 sequence (P19793 1-462 partner): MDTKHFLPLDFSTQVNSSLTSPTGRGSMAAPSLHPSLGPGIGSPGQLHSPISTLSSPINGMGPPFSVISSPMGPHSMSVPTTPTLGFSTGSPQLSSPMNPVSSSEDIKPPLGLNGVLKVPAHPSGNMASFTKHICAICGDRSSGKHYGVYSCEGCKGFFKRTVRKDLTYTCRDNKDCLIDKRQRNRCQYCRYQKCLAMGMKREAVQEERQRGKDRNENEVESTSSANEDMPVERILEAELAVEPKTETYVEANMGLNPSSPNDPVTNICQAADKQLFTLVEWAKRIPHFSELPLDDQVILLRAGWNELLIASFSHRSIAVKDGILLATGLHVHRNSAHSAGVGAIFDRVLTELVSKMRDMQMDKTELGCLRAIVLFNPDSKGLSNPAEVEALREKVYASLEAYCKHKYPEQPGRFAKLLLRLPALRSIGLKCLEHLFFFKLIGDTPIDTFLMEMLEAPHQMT
The experiment in a line: In Vitro FXR Assay (TK): TK-ECRE-luc reporter in transfected CV-1 cells. The experiment is classed as cell-based. Particulars: CV-1 cells transfected with hFXR, hRXR, pCMX-YFP, 18 hrs incubation, luminescence. How it is done: Example B-1: In Vitro FXR Assay (TK)
CV-1 cells were seeded at a density of 2,000,000 cells in a T175 flask with DMEM+10% charcoal double-stripped FBS and incubated at 37° C. in 5% CO2 for 18 h (O/N).
After 18 h of incubation, the medium in the T175 flask was changed with fresh DMEM+10% charcoal super-stripped serum. In a polypropylene tube, 2500 μL OptiMEM (Life Technologies, Cat #31985-062) was combined with expression plasmids for hFXR, hRXR, TK-ECRE-luc and pCMX-YFP. The tube was then briefly vortexed and incubated at room temperature for 5 minutes. Transfection reagent (X-tremeGENE HP from Roche, Cat #06 366 236 001) was added to the OptiMEM/plasmid mixture vortexed and incubated at room temperature for 20 minutes. Following incubation, the transfection reagent/DNA mixture complex was added to cells in the T175 flask and the cells were incubated at 37° C. in 5% CO2 for 18 h (O/N).
Compounds were serially diluted in DMSO and added to transfected CV-1 cells. The cells were then incubated for 18 hrs. The next day cells were lysed and examined for luminescence.
As for `COc1ccc(C23CCC(CN(c4cc(-c5cnn(C(C)(C)C)c5)ccn4)C(=O)[C@H]4CC[C@H](OC(=O)N5CC[C@H]5CO)CC4)(CC2)CC3)cc1C` [Compound 2.21, (S)-4-((4-(1-(tert-Butyl)-1H-pyrazol-4-yl)pyridin-2-yl)((4-(4-methoxy-3-methylphenyl)bicyclo[2.2.2]octan-1-yl)methyl)carbamoyl)cyclohexyl 2-(hydroxymethyl)azetidine- trans-1-carboxylate], the EC50 (in general, the concentration needed to bring the measured effect to its halfway point) was not above 10 nM.
In the case of `COc1ccc(C23CCC(CN(c4cc(-c5coc(C(C)(C)C)n5)ccn4)C(=O)[C@H]4CC[C@H](OC(=O)N5CC[C@H]5CO)CC4)(CC2)CC3)cc1C` [Compound 2.11, (S)-4-((4-(2-(tert-Butyl)oxazol-4-yl)pyridin-2-yl)((4-(4-methoxy-3-methylphenyl)bicyclo[2.2.2]octan-1-yl)methyl)carbamoyl)cyclohexyl 2-(hydroxymethyl)azetidine- trans-1-carboxylate] it was not above 10 nM.
`COc1ccc(C23CCC(CN(c4cc(-c5coc(C(C)(C)C)n5)ccn4)C(=O)[C@H]4CC[C@H](OC(=O)N5CC(O)C5)CC4)(CC2)CC3)cc1C` [Compound 3.10, 4-((4-(2-(tert-Butyl)oxazol-4-yl)pyridin-2-yl)((4-(4-methoxy-3-methylphenyl)bicyclo[2.2.2]octan-1-yl)methyl)carbamoyl)cyclohexyl 3-hydroxyazetidine-trans-1-carboxylate] registered an EC50 not above 10 nM.
For `COc1ccc(C23CCC(CN(c4nccc(-c5cnn(C(C)(C)C)c5)n4)C(=O)[C@H]4CC[C@H](OC(=O)N5CC(O)C5)CC4)(CC2)CC3)cc1C` [Compound 3.14, 4-((4-(1-(tert-Butyl)-1H-pyrazol-4-yl)pyrimidin-2-yl)((4-(4-methoxy-3-methylphenyl)bicyclo[2.2.2]octan-1-yl)methyl)carbamoyl) (trans-cyclohexyl) 3-hydroxyazetidine-1-carboxylate], the 50% effective concentration (EC50) was 10 to 1000 nM.
Turning to `CCC(C)(CC)n1cc(-c2ccnc(N(CC34CCC(c5ccc(OC)c(C)c5)(CC3)CC4)C(=O)[C@H]3CC[C@H](OC(=O)N4CCC(O)CC4)CC3)c2)cn1` [Compound 4.06, 4-(((4-(4-Methoxy-3-methylphenyl)bicyclo[2.2.2]octan-1-yl)methyl)(4-(1-(3-methylpentan-3-yl)-1H-pyrazol-4-yl)pyridin-2-yl)carbamoyl)cyclohexyl trans-4-hydroxypiperidine-1-carboxylate], the half-maximal effective concentration (EC50) is not above 10 nM.
`COc1ccc(C23CCC(CN(c4cc(-c5cnn(C(C)(C)C)c5)ccn4)C(=O)[C@H]4CC[C@H](OC(=O)N5CCC(O)C5)CC4)(CC2)CC3)cc1C` (stereo partly drawn) [Compound 3.03, 4-((4-(1-(tert-Butyl)-1H-pyrazol-4-yl)pyridin-2-yl)((4-(4-methoxy-3-methylphenyl)bicyclo[2.2.2]octan-1-yl)methyl)carbamoyl) (trans-cyclohexyl) 3-hydroxypyrrolidine-1-carboxylate] yielded an EC50 not above 10 nM.
In turn, `COc1ccc(C23CCC(CN(c4cc(-c5cnc(C(C)(C)C)s5)ccn4)C(=O)[C@H]4CC[C@H](OC(=O)N5CC(CO)C5)CC4)(CC2)CC3)cc1C` [Compound 3.08, 4-((4-(2-(tert-Butyl)thiazol-5-yl)pyridin-2-yl)((4-(4-methoxy-3-methylphenyl)bicyclo[2.2.2]octan-1-yl)methyl)carbamoyl) (trans-cyclohexyl) 3-(hydroxymethyl)azetidine-1-carboxylate] registered an EC50 not above 10 nM.
Take `COc1ccc(C23CCC(CN(c4cc(-c5cnc(C(C)(C)C)s5)ccn4)C(=O)[C@H]4CC[C@H](OC(=O)NC5COC5)CC4)(CC2)CC3)cc1C` [Compound 2.04, 4-((4-(2-(tert-Butyl)thiazol-5-yl)pyridin-2-yl)((4-(4-methoxy-3-methylphenyl)bicyclo[2.2.2]octan-1-yl)methyl)carbamoyl) (trans-cyclohexyl) oxetan-3-ylcarbamate]: the EC50 was not above 10 nM.
In the case of `COc1ccc(C23CCC(CN(c4cc(-c5coc(C(C)(C)C)n5)ccn4)C(=O)[C@H]4CC[C@H](OC(=O)N5CC(C)(O)C5)CC4)(CC2)CC3)cc1C` [Compound 2.12, 4-((4-(2-(tert-Butyl)oxazol-4-yl)pyridin-2-yl)((4-(4-methoxy-3-methylphenyl)bicyclo[2.2.2]octan-1-yl)methyl)carbamoyl) (trans-cyclohexyl) 3-hydroxy-3-methylazetidine-1-carboxylate] it was not above 10 nM.
In the case of `COc1ccc(C23CCC(CN(c4cc(-n5cnc(C(C)(C)C)c5)ccn4)C(=O)[C@H]4CC[C@H](OC(=O)N5CC(O)C5)CC4)(CC2)CC3)cc1C` [Compound 4.11, 4-((4-(4-(tert-Butyl)-1H-imidazol-1-yl)pyridin-2-yl)((4-(4-methoxy-3-methylphenyl)bicyclo[2.2.2]octan-1-yl)methyl)carbamoyl) cyclohexyl trans-3-hydroxyazetidine-1-carboxylate], the EC50 fell in the range of 10 to 1000 nM.
For `COc1ccc([C@H]2CC[C@H](CN(c3cc(-c4cnn(C(C)(C)C)c4)ccn3)C(=O)[C@H]3CC[C@H](OC(=O)N4CC(O)C4(C)C)CC3)CC2)cc1C` (stereo partly drawn) [Compound 1.09, trans-4-((4-(1-(tert-Butyl)-1H-pyrazol-4-yl)pyridin-2-yl)((trans-4-(4-methoxy-3-methylphenyl)cyclohexyl)methyl)carbamoyl) cyclohexyl 3-hydroxy-2,2-dimethylazetidine-1-carboxylate] the value was not above 10 nM; for `COc1ccc([C@H]2CC[C@H](CN(c3cc(-c4cnn(C(C)(C)C)c4)ccn3)C(=O)[C@H]3CC[C@H](OC(=O)N4CCC(O)CC4)CC3)CC2)cc1C` [Compound 1.10, trans-4-((4-(1-(tert-Butyl)-1H-pyrazol-4-yl)pyridin-2-yl)((trans-4-(4-methoxy-3-methylphenyl)cyclohexyl)methyl)carbamoyl) cyclohexyl 4-hydroxypiperidine-1-carboxylate], 10 to 1000 nM; for `COc1ccc(C23CCC(CN(c4cc(-c5cnn(C(C)(C)C)c5)ncn4)C(=O)[C@H]4CC[C@H](OC(=O)N5CC(O)C5)CC4)(CC2)CC3)cc1C` [Compound 2.36, 4-((6-(1-(tert-Butyl)-1H-pyrazol-4-yl)pyrimidin-4-yl)((4-(4-methoxy-3-methylphenyl)bicyclo[2.2.2]octan-1-yl)methyl)carbamoyl) (trans-cyclohexyl) 3-hydroxyazetidine-1-carboxylate], 10 to 1000 nM.
In the case of `COc1ncc(C23CCC(CN(c4cc(-c5cnn(C(C)(C)C)c5)ccn4)C(=O)[C@H]4CC[C@H](OC(=O)N5CC(O)C5)CC4)(CC2)CC3)cc1C` [Compound 3.05, 4-((4-(1-(tert-Butyl)-1H-pyrazol-4-yl)pyridin-2-yl)((4-(6-methoxy-5-methylpyridin-3-yl)bicyclo[2.2.2]octan-1-yl)methyl)carbamoyl) (trans-cyclohexyl) 3-hydroxyazetidine-1-carboxylate] it was not above 10 nM.
Regarding `CCC(C)(CC)n1cc(-c2ccnc(N(CC34CCC(c5ccc(OC)c(C)c5)(CC3)CC4)C(=O)[C@H]3CC[C@H](OC(=O)N4CC(C)(O)C4)CC3)c2)cn1` [Compound 4.05, 4-(((4-(4-Methoxy-3-methylphenyl)bicyclo[2.2.2]octan-1-yl)methyl)(4-(1-(3-methylpentan-3-yl)-1H-pyrazol-4-yl)pyridin-2-yl)carbamoyl)cyclohexyl trans-3-hydroxy-3-methylazetidine-1-carboxylate], the concentration for a half-maximal effect (EC50) was not above 10 nM.
